Measured values published in patent US11103511B2, “Substituted indolo[2,1-b]quinazolines as inhibitors of tryptophan dioxygenase and indoleamine 2,3-dioxygenase 1” (FUDAN UNIVERSITY, priority 2017, dated 2021).

Experiments:
IDO2 [1] = biological target: T1, IDO2 (Homo sapiens, UniProt Q6ZQW0); experiment: Half effective inhibitory concentration IC50 (cell) of IDO2, transfected U87 MG cells; format: cell-based; details: U87 MG cells transfected with pcDNA3.1(+)-IDO2, 24 h; read-out: IC50 Cellular IDO2
T1 construct: made in house
T1 sequence (Q6ZQW0 1-407): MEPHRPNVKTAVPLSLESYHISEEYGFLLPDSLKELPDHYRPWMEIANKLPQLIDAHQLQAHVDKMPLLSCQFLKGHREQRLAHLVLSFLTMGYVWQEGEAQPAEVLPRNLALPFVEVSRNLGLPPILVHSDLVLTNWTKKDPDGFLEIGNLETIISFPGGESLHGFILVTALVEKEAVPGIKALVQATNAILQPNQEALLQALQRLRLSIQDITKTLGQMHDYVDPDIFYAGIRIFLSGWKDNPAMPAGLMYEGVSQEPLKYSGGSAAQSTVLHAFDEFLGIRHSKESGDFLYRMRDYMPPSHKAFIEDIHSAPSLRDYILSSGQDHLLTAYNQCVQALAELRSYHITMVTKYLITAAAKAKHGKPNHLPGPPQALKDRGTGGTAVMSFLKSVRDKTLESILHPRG
Procedure: The nucleotide sequences of IDO1, IDO2, and TDO have been disclosed. […] U87 MG cell line (ATCC No.: HTB-14) was cultured in DMEM high-sugar medium containing 10% fetal bovine serum in a 37° C., 5% CO2 incubator. The cells were blown evenly into 6-well plate, and transfected when the cells grew to 80%-90% fusion. […] The cells were cultured in 37° C., 5% CO2 incubator for 6 h, and the medium was changed into DMEM medium containing 10% serum after adherence. […] Test compounds (including compounds of the present invention, […] and D-1-MT) at different concentration gradients were added and the total volume of each well was supplemented to 200 μl with cell culture medium containing L-tryptophan (200 μM of final concentration, sterilized by filtration). After incubated for 24 h, 140 μL of supernatant was taken into another 96-well plate, 10 μL of 30% (w/v) trichloroacetic acid was added, heated at 65° C. for 15 min, and centrifuged at 13800×g for 5 minutes. […] The experimental grouping was pcDNA3.1 (+)-IDO2 transfected group (experimental group), pcDNA3.1 (+) transfected group (empty plasmid control group), and non-transfected group (blank control group). Each group had three repeated well. The inhibitory rate was plotted against the inhibitor concentration, and the IC50 value was calculated by modified Karber method.

IDO2 [2] = biological target: T1, IDO2; experiment: Half effective inhibitory concentration IC50 (enzyme level) of IDO2; format: biochemical; details: human IDO2, pH 7.5, read-out: IC50 enzymatic IDO2
Procedure: After the mixed solution was in water bath at 37° C. for 5 min, IDO2 was added to mixed solution and reacted at 37° C. for 30 min. After the enzymatic reaction was completed, 200 μL of 30% (w/v) trichloroacetic acid was added to terminate the reaction. Then the reaction mixture was heated in a 65° C. water bath for 15 min to make the reaction product transform from N-formyl-kynurenine to kynurenine, and centrifuged at […] for 10 min. 100 μL of supernatant was draw and mixed with equal volume of 2‰ (w/v) p-dimethylaminobenzaldehyde in acetic acid completely.

hTDO [3] = biological target: T2, hTDO (Homo sapiens, UniProt P48775); experiment: Half effective inhibitory concentration IC50 (enzyme level) of TDO; format: biochemical; details: pH 7.0, NI means of no inhibitory activity, read-out: IC50 enzymatic TDO
T2 construct: made in house
T2 sequence (P48775 whole entry): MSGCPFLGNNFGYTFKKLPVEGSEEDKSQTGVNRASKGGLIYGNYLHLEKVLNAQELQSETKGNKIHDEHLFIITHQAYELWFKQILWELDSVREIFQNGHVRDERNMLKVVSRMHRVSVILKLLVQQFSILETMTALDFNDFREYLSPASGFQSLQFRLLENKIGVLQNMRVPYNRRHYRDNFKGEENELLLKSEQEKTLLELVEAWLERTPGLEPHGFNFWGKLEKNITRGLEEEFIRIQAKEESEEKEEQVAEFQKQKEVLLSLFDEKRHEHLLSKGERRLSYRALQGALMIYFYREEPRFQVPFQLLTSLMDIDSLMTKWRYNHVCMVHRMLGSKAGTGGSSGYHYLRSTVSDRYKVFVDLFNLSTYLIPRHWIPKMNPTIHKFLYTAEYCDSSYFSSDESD
Procedure: The nucleotide sequences of IDO1, IDO2, and TDO have been disclosed. The active IDO1, IDO2, and TDO in the Examples are human IDO1, IDO2, and TDO, and can be prepared by conventional molecular cloning methods.
In a 500 μL of standard detection system, 50 mmol/L potassium phosphate buffer (pH 7.0), 200 μg/mL catalase, 40 mmol/L ascorbic acid, 20 μmol/L methylene blue, substrate L-tryptophan with suitable concentration and hTDO inhibitors to be tested were mixed. After the mixed solution was warmed in water bath at 37° C. for 5 min, hTDO was added to react at 37° C. for 30 min. After the enzymatic reaction was completed, […] (w/v) trichloroacetic acid was added to terminate the reaction. Then the reaction mixture was heated in a 65° C. water bath for 15 min to make the reaction product transform from N-formyl-kynurenine to kynurenine, and centrifuged at […] for 10 min. 100 μL of supernatant was draw and mixed with equal volume of 2‰ (w/v) p-dimethylaminobenzaldehyde in acetic acid completely. The kynurenine can reacted with the solution and turned the mixed solution to yellow, and the absorbance was measured at 492 nm by microplate reader. The inhibitory rate was plotted against the inhibitor concentration, and the IC50 value was calculated by modified Karber method, the experimental results were shown in Table 1.

IDO2 [4] = biological target: T1, IDO2; experiment: Determination of IDO2 inhibitor type and Ki value; format: biochemical; details: [S]/V~[i] map, L-tryptophan 20-40 mM
Procedure: (§1) The nucleotide sequences of IDO1, IDO2, and TDO have been disclosed.
After the mixed solution was in water bath at 37° C. for 5 min, 10 μL of IDO2 (about 1 μM) was added to mixed solution and reacted at 37° C. for 30 min. After the enzymatic reaction was completed, 200 μL of 30% (w/v) trichloroacetic acid was added to terminate the reaction. Then the reaction mixture was heated in 65° C. water bath for 15 min to make the reaction product transform from N-formyl-kynurenine to kynurenine, and centrifuged at […] for 10 min. 100 μL of supernatant was draw and mixed with equal volume of 2‰ (w/v) p-dimethylaminobenzaldehyde in acetic acid completely. […] The inhibitor type was determined by Dixon mapping method (1/v˜[i]); the Ki value of inhibitor was obtained by [S]/V˜[i] map.

IDO1 [5] = biological target: T3, IDO1 (Homo sapiens, UniProt P14902); experiment: Cellular IC50 of IDO1; format: cell-based
T3 sequence (P14902 whole entry): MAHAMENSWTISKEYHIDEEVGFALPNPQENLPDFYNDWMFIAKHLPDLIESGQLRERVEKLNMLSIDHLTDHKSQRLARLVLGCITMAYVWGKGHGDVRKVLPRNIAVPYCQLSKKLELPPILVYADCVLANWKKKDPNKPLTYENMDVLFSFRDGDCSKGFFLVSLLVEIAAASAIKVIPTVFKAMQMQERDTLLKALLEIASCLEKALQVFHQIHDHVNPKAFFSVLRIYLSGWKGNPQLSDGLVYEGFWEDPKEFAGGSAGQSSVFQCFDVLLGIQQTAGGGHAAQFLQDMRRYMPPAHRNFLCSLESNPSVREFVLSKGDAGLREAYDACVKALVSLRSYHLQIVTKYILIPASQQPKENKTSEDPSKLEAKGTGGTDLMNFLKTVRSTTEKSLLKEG
Text: as §1
(§2) The IC50 test of IDO1 can be performed with reference to existing methods in the art, such as the method described in Chinese Patent NO.

hTDO [6] = biological target: T2, hTDO; experiment: Half effective inhibitory concentration IC50 (cell) of TDO, transfected HEK293 cells; format: cell-based; details: HEK293 cells transfected with pcDNA3.1(+)-hTDO, 5 h; NI means of no inhibitory activity; read-out: IC50 Cellular TDO
Procedure: The nucleotide sequences of IDO1, IDO2, and TDO have been disclosed. The active IDO1, IDO2, and TDO in the Examples are human IDO1, IDO2, and TDO, and can be prepared by conventional molecular cloning methods. HEK293 cell line was cultured in DMEM high-sugar medium containing 10% fetal bovine serum in a 37° C., 5% CO2 incubator. The cells were blown evenly into 6-well plates, and transfected when the cells grew to 80%-90% fusion. The operation was carried out according to the instructions of Lipofectamine 2000 while improved slightly: the serum-containing medium was draw out and the cells were washed twice with PBS, and 1500 μL of serum-free medium was added to each well. […] The cells were cultured in 37° C., 5% CO2 incubator for 4-6 h, and then the medium was changed into DMEM medium containing 10% serum. […] Test compounds (including compounds of the present invention, […] and INCB023460) at different concentration gradients were added and the total volume of each well was supplemented to 200 μl with cell culture medium. After incubated for 5 h, 140 μL of supernatant was taken into another 96-well plate, 10 μL of 30% (w/v) trichloroacetic acid was added, heated at 65° C. for 15 min, and centrifuged at 13800×g for 5 minutes. 100 μL of supernatant was mixed with equal volume of 2‰ (w/v) […] acetic acid solution, the absorbance was measured at 492 nm by microplate reader after fully mixing. The experimental grouping was pcDNA3.1 (+)-hTDO transfected group (experimental group), pcDNA3.1 (+) transfected group (plasmid-empty control group), and non-transfected group (blank control group). Each group had three repeated well. The inhibitory rate was plotted against the inhibitor concentration, and the IC50 value was calculated by modified Karber method, the experimental results were shown in Table 1.

IDO1 [7] = biological target: T3, IDO1; experiment: Ki value of IDO1; format: biochemical
Text: as §1, §2

IDO1 [8] = biological target: T3, IDO1; experiment: IC50 (enzyme level) of IDO1; format: biochemical; details: read-out: IC50 enzymatic IDO1
Text: as §1, §2

[9] = cellular, read-out: IC50 Cellular IDO1

Compound	IC50 (IDO2 [1]) [µM]	IC50 (IDO2 [2]) [µM]	IC50 (hTDO [3]) [µM]	Ki (IDO2 [4]) [µM]	IC50 (hTDO [6]) [µM]	IC50 (IDO1 [5]; [9]) [µM]	Ki (IDO1 [7]) [µM]	IC50 (IDO1 [8]) [µM]	IC50 (IDO1 [5]) [µM]
CN1CCN(Cc2ccc3nc4n(c(=O)c3c2)-c2ccc(F)cc2C4=O)CC1 [1a]	18.7	18.4	0.76	6.32	0.093				0.022
O=C1c2cc(F)ccc2-n2c1nc1ccc(CN3CCNCC3)cc1c2=O [1b]	3.58	31.4	0.87	1.96	0.092				
CC(C)(C)OC(=O)N1CCN(Cc2ccc3nc4n(c(=O)c3c2)-c2ccc(F)cc2C4=O)CC1 [1c]	8.05	62.6	0.45	6.11	0.067				0.133
CN1CCN(Cc2ccc3nc4n(c(=O)c3c2)-c2ccccc2C4=O)CC1 [1d]	23.3	46.9	2.41	8.85	0.184	0.177			
CN(C)Cc1ccc2nc3n(c(=O)c2c1)-c1ccc(F)cc1C3=O [1e]	3.81	14	0.41	4.32	0.063				
O=C1c2cc(F)ccc2-n2c1nc1ccc(CN3CCOCC3)cc1c2=O [1f]	16.5	39.6	0.87	17.5	0.071				

Now from value to molecule, other results behind:

IC50 (IDO2 [1]) [µM]	IC50 (IDO2 [2]) [µM]	IC50 (hTDO [3]) [µM]	Ki (IDO2 [4]) [µM]	IC50 (hTDO [6]) [µM]	IC50 (IDO1 [5]; [9]) [µM]	Ki (IDO1 [7]) [µM]	IC50 (IDO1 [8]) [µM]	Compound	IC50 (IDO1 [5]) [µM]
48.1	98	46.6		0.688	0.278	103	45.2	O=C1c2cc(Cn3cc(-c4ccccc4)nn3)ccc2-n2c1nc1ccccc1c2=O [3a]	
50.1	99.6	81.8		1.37	0.335	96.3	50	O=C1c2cc(Cn3cc(-c4ccccc4)nn3)ccc2-n2c1nc1ccc(F)cc1c2=O [3b]	
41.7	83	40		0.197	0.185	63.3	39.1	O=C1c2cc(F)ccc2-n2c1nc1ccc(Cn3cc(-c4ccccc4)nn3)cc1c2=O [3c]	
68.4	134	88.7		1.44	0.547	98.1	82.6	Cc1ccc2nc3n(c(=O)c2c1)-c1ccc(Cn2cc(-c4ccccc4)nn2)cc1C3=O [3d, 8-(4-phenyl-1H-1,2,3-triazol-1-methylene) -2-methyltryptanthrin]	
51.2	102	44.6		0.715	0.201		41.1	O=C1c2cc(Cn3cc(-c4ccccc4)nn3)ccc2-n2c1nc1ccc(Br)cc1c2=O [3e, 8-(4-phenyl-1H-1,2,3-triazol-1-methylene) -2-bromotryptanthrin]	
65.1	125	50.1		0.713	0.245		42.2	O=C1c2cc(Cn3cc(-c4ccccc4)nn3)ccc2-n2c1nc1ccc(Cl)cc1c2=O [3f, 8-(4-phenyl-1H-1,2,3-triazol-1-methylene) -2-chlorotryptanthrin]	
